ChEMBL document CHEMBL2203260, “Riccardin C derivatives as anti-MRSA agents: structure-activity relationship of a series of hydroxylated bis(bibenzyl)s” (2012)
In brackets after ≈: the same amount, converted by molar mass.

How the values were obtained:
Staphylococcus aureus [1] = assay: Antibacterial activity against methicillin-resistant Staphylococcus aureus OM584 by two-fold liquid microdilution method; assay type: functional
Staphylococcus aureus [2] = assay: Antibacterial activity against methicillin-resistant Staphylococcus aureus OM481 by two-fold liquid microdilution method; assay type: functional

Compound	MIC (Staphylococcus aureus [1]) [µg/mL]	MIC (Staphylococcus aureus [2]) [µg/mL]
CC(=O)NC[C@H]1CN(c2ccc(N3CCOCC3)c(F)c2)C(=O)O1 [LINEZOLID]	1 (≈ 2.96 µM)	1 (≈ 2.96 µM)
Oc1cc2ccc1-c1ccccc1CCc1ccc(cc1)Oc1cccc(c1)CC2	> 100	3.2 (≈ 8.15 µM)
Oc1ccccc1Oc1ccccc1	6.25 (≈ 33.6 µM)	6.25 (≈ 33.6 µM)
Oc1ccc2c(c1)CCc1ccc(cc1)Oc1cccc(c1)CCc1ccc-2cc1	> 100	1.6 (≈ 4.08 µM)
COc1ccc2c(c1)CCc1ccc(cc1)Oc1cccc(c1)CCc1ccc-2cc1	> 100	> 100
Oc1ccc(-c2ccccc2O)cc1	> 100	> 100
Oc1ccc2cc1Oc1ccc(cc1)CCc1ccccc1-c1ccc(cc1O)CC2	3.2 (≈ 7.83 µM)	3.2 (≈ 7.83 µM)
Oc1ccc2c(c1)CCc1ccc(cc1O)Oc1cc(ccc1O)CCc1ccc-2c(O)c1	8 (≈ 18.2 µM)	8 (≈ 18.2 µM)
COc1ccc2cc1Oc1ccc(cc1)CCc1ccccc1-c1ccc(cc1)CC2	> 100	> 100
COc1cc2ccc1-c1ccccc1CCc1ccc(cc1)Oc1cccc(c1)CC2	> 100	> 100
Oc1ccc2c(c1)CCc1ccc(cc1)Oc1cc(ccc1O)CCc1ccc-2cc1	3.2 (≈ 7.83 µM)	3.2 (≈ 7.83 µM)
Oc1ccc2c(c1)CCc1ccc(cc1)Oc1cc(ccc1O)CCc1ccc-2c(O)c1 [RICCARDI C]	3.2 (≈ 7.54 µM)	3.2 (≈ 7.54 µM)
Oc1ccc2c(c1)CCc1ccc(c(O)c1)Oc1cc(ccc1O)CCc1ccc-2c(O)c1	16 (≈ 36.3 µM)	16 (≈ 36.3 µM)
Oc1ccc2cc1Oc1ccc(cc1)CCc1ccccc1-c1ccc(cc1)CC2	> 100	> 100
Oc1ccc(CCc2cccc(O)c2)cc1 [LUNULARIN]	> 100	> 100
Oc1ccc2c(c1)CCc1ccc(cc1)Oc1cccc(c1)CCc1ccc-2c(O)c1	3.2 (≈ 7.83 µM)	3.2 (≈ 7.83 µM)
